Common to all, as to format: biochemical
The target in test [1] is GST-tagged human Jak1 kinase domain (Homo sapiens (Human), UniProt P23458). Put plainly: Jak1 Inhibition Assay (Omnia kinase assay). As to conditions: Table 2; 500 μM ATP. The protocol: (§1) The assays described in Examples C, D, E and F for the determination of JAK1, JAK2, JAK3 and Tyk2 kinase activity, respectively, utilized the Omnia® Kinase fluorescence peptide substrate-based technology (Invitrogen). […] The reactions were therefore read at excitation 360 nm and emission was measured at 485 nm every 50 seconds for 45 minutes using a PerkinElmer EnVision Multilabel Plate Reader.
(§2) The final buffer conditions for each of the JAK1, JAK2, JAK3 and Tyk2 assays were as follows: 25 mM HEPES, pH 7.4, 10 mM MgCl2, 0.01% Triton X-100 and 1 mM DTT.
(§3) Compounds were prepared at 50× the final concentration in DMSO by conducting 3-fold serial dilutions from a 500-μM or 1000-μM intermediate dilution to give a 10-point dosing curve having a high dose of 10 or 20 μM. Two-μL aliquots of these were transferred to a fresh plate for a ten-fold intermediate dilution with assay buffer. Five-μL aliquots of the diluted compounds were then transferred to 20-μL of assay mixtures described in Examples C, D, E and F for a final concentration of DMSO of 2%. A standard or reference compound was typically included on each assay plate to validate that plate. For each plate, percent of control (POC) values were calculated for each well according to the following equation:
(§4) [formula] • where • Xmax=Average Uninhibited Controls • Xmin=Average Background IC50's were estimated from the POC's using a standard 4-parameter logistic model:
(§5) [formula] • where • A=Minimum Y (Bottom Asymptote) • B=Maximum Y (Top Asymptote) • C=EC50 • D=Slope Factor • X=Compound Concentration (nM) • Y=POC
(§6) The IC50 is defined as the concentration of inhibitor at which the POC equals 50 for the fitted curve.
Compounds of Formula I were screened for their ability to inhibit Jak1 using the general enzyme inhibition assay method, in which the assay mixture contained 500 μM ATP, 8 μM Omnia® Y12 peptide (Catalog # IVGN KPZ3121C; Invitrogen Corporation, Carlsbad, Calif.) and 5 nM Jak1 in a total volume of 20 μL. […] (catalog # IVGN PV4774).

Test [2] has as its target TrkA (histidine-tagged recombinant human TrkA, cytoplasmic domain) (Homo sapiens (Human), UniProt P04629). Kind of test: TrkA ELISA Assay. The method in brief:
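ELISA read-out: a peroxidase-linked anti-phosphotyrosine antibody (PY20, 0.2 μg/mL) with TMB substrate, absorbance at 450 nm after acid stop. The plate-bound substrate was poly(Glu,Ala,Tyr; 6:3:1) at 0.025 mg/mL, phosphorylated by the recombinant His-tagged human TrkA cytoplasmic domain in the presence of inhibitors.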

Test [3] addresses GST-tagged human Jak3 kinase domain (Homo sapiens (Human), UniProt P52333). Put plainly: Jak3 Inhibition Assay (Omnia kinase assay). As to conditions: Table 2; 500 μM ATP. Here is the method:
as §1, §2, §3, §4, §5, §6
Compounds of Formula I were screened for their ability to inhibit Jak3 using the general enzyme inhibition assay method, in which the assay mixture contained 500 μM ATP, 10 μM Omnia® Y7 peptide (Catalog # IVGN KNZ3071C, Invitrogen Corporation, Carlsbad, Calif.) and 1.5 nM Jak3 in a total volume of 20 μL. GST-tagged human Jak3 kinase domain comprising amino acids 781-1124 was purchased from Invitrogen Corporation, Carlsbad, Calif. (catalog # IVGN PV3855).

For a further test, the target named is Human Tyk2 kinase domain (Homo sapiens (Human), UniProt P29597). Put plainly: Tyk2 Inhibition Assay (Omnia kinase assay). As to conditions: Table 2; 500 μM ATP. Here is the method: as §1, §2, §3, §4, §5, §6
Compounds of Formula I were screened for their ability to inhibit Tyk2 using the general enzyme inhibition assay method, in which the assay mixture contained 500 μM ATP, 8 μM Omnia® Y12 peptide (Catalog # IVGN KPZ3121C; Invitrogen Corporation, Carlsbad, Calif.) and 1 nM Tyk2 in a total volume of 20 μL. Human Tyk2 kinase domain, comprising amino acids 886 to 1187 with 10 additional histidine residues (histidine tag) on the carboxy terminus, was expressed and purified from bacculovirus in-house at Array BioPharma Inc. (Boulder, Colo.). The histidine tag was cleaved after purification using standard conditions.

For another test, the target named is Human Jak2 kinase domain (Homo sapiens (Human), UniProt O60674). Put plainly: Jak2 Inhibition Assay (Omnia kinase assay). As to conditions: 500 μM ATP.
[4] abbreviates: Table 1, ELISA, 500 μM ATP, read-out: TrkA Enzyme IC50.
Where [5] appears, read: Table 1, >1000 nM when >50% inhibition not observed at 1000 nM, read-out: Jak2 Enzyme IC50.

As a reminder, the IC50 is the concentration needed to halve the response being measured.

Read-outs that look alike come from different tables or passages of the source.

Chain of GST-tagged human Jak1 kinase domain (P23458 866-1154): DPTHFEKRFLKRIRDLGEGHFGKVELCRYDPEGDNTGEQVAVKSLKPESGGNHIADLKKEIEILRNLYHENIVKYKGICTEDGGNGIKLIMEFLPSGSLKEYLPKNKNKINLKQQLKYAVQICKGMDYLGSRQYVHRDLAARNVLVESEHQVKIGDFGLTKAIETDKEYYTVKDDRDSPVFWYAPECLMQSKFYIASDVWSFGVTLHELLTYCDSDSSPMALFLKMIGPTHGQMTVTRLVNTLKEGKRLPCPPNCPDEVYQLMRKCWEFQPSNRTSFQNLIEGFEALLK
Chain of TrkA (histidine-tagged recombinant human TrkA, cytoplasmic domain) (P04629 440-796): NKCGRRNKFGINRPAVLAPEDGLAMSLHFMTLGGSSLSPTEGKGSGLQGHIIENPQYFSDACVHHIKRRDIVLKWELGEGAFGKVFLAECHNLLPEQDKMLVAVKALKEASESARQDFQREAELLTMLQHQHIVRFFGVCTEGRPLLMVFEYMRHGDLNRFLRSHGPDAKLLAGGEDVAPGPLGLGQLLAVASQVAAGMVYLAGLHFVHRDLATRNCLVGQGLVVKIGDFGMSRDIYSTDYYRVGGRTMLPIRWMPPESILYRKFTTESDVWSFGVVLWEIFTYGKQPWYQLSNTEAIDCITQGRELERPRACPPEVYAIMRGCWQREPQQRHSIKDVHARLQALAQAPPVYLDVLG
Chain of GST-tagged human Jak3 kinase domain (P52333 781-1124): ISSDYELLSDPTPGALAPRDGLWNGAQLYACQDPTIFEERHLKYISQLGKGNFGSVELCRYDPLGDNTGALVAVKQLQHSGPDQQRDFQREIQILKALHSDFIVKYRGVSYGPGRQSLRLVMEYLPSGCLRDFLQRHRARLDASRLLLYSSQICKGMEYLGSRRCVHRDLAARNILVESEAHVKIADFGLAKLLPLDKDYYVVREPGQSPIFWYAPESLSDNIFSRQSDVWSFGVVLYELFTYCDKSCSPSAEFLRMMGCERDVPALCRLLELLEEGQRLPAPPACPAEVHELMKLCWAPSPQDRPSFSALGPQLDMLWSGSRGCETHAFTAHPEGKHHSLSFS
Chain of Human Jak2 kinase domain (O60674 808-1132): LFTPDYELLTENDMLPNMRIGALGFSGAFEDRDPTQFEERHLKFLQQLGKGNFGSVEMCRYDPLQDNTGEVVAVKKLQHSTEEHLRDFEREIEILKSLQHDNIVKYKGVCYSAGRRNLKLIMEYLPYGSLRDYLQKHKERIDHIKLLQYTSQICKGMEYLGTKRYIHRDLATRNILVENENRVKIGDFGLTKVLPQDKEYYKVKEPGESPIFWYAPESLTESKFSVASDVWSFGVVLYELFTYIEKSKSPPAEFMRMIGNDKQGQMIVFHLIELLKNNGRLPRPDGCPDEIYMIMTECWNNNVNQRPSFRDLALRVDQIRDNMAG
Chain of Human Tyk2 kinase domain (P29597 886-1187): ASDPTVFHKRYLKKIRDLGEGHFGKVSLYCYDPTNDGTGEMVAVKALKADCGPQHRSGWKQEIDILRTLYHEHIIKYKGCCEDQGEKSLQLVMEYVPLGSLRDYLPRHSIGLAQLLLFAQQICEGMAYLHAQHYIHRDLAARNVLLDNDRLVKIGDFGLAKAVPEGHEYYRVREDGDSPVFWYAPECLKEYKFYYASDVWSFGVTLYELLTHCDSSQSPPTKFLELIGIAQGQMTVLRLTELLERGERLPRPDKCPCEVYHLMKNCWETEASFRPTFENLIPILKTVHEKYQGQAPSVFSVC

Turning to `C[C@H](NC(=O)c1cnn2ccc(N3CCC[C@@H]3c3cncc(F)c3)nc12)C1CC1` [Example 124, N-((S)-1-cyclopropylethyl)-5-((R)-2-(5-fluoropyridin-3-yl)pyrrolidin-1-yl)pyrazolo[1,5-a]pyrimidine-3-carboxamide], the IC50 in test [1] was over 1000 nM; in test [2] (setting [4]), 2.9 nM; in test [2] (Table 2, read-out: TrkA IC50), 2.9 nM; in test [3] it was over 1000 nM; against Human Tyk2 kinase domain, over 1000 nM; on Human Jak2 kinase domain (setting [5]), 759 nM. Besides, the IC50 at Human Jak2 kinase domain (Table 2, read-out: Jak2 IC50) was 759 nM.
Take `O=C(NC1(C(F)(F)F)CC1)c1cnn2ccc(N3CCC[C@@H]3c3cncc(F)c3)nc12` [Example 98, (R)-5-(2-(5-fluoropyridin-3-yl)pyrrolidin-1-yl)-N-(1-(trifluoromethyl)cyclopropyl)pyrazolo[1,5-a]pyrimidine-3-carboxamide]: the IC50 in test [1] was over 1000 nM; in test [2] (setting [4]), 9 nM; in test [2] (Table 2, read-out: TrkA IC50) it was 9 nM; in test [3] it was over 1000 nM; on Human Tyk2 kinase domain, over 1000 nM; at Human Jak2 kinase domain (setting [5]), over 1000 nM. Further, on Human Jak2 kinase domain (Table 2, read-out: Jak2 IC50), the IC50 is over 1000 nM.
Take `CC(C)NC(=O)c1cnn2ccc(N3CCC[C@@H]3c3cncc(F)c3)nc12` [Example 93, (R)-5-(2-(5-fluoropyridin-3-yl)pyrrolidin-1-yl)-N-isopropylpyrazolo[1,5-a]pyrimidine-3-carboxamide]: the IC50 in test [1] was over 1000 nM; in test [2] (setting [4]), 5.1 nM; in test [2] (Table 2, read-out: TrkA IC50), 5.1 nM; in test [3], over 1000 nM; against Human Tyk2 kinase domain it was over 1000 nM; at Human Jak2 kinase domain (setting [5]) it was over 1000 nM. Besides, the IC50 at Human Jak2 kinase domain (Table 2, read-out: Jak2 IC50) was over 1000 nM.
Regarding `O=C(NC1CC1)c1cnn2ccc(N3CCC[C@@H]3c3cncc(F)c3)nc12` [Example 52, (R)—N-cyclopropyl-5-(2-(5-fluoropyridin-3-yl)pyrrolidin-1-yl)pyrazolo[1,5-a]pyrimidine-3-carboxamide], the concentration for half-maximal inhibition (IC50) is over 1000 nM in test [1]; 7.4 nM in test [2] (setting [4]); 7.4 nM in test [2] (Table 2, read-out: TrkA IC50); over 1000 nM in test [3]; over 1000 nM at Human Tyk2 kinase domain; over 1000 nM at Human Jak2 kinase domain (setting [5]). The IC50 on Human Jak2 kinase domain (Table 2, read-out: Jak2 IC50) was over 1000 nM.
As for `C[C@@H](NC(=O)c1cnn2ccc(N3CCC[C@@H]3c3cncc(F)c3)nc12)C1CC1` [Example 123, N-((R)-1-cyclopropylethyl)-5-((R)-2-(5-fluoropyridin-3-yl)pyrrolidin-1-yl)pyrazolo[1,5-a]pyrimidine-3-carboxamide], the IC50 was over 1000 nM in test [1]; 6.4 nM in test [2] (setting [4]); 6.3 nM in test [2] (Table 2, read-out: TrkA IC50); over 1000 nM in test [3]; over 1000 nM at Human Tyk2 kinase domain; over 1000 nM on Human Jak2 kinase domain (setting [5]). Besides, the IC50 at Human Jak2 kinase domain (Table 2, read-out: Jak2 IC50) is over 1000 nM.
`CC1(NC(=O)c2cnn3ccc(N4CCC[C@@H]4c4cncc(F)c4)nc23)CC1` [Example 91, (R)-5-(2-(5-fluoropyridin-3-yl)pyrrolidin-1-yl)-N-(1-methylcyclopropyl)pyrazolo[1,5-a]pyrimidine-3-carboxamide]: the IC50 in test [1] is over 1000 nM; in test [2] (setting [4]), 3.2 nM; in test [2] (Table 2, read-out: TrkA IC50), 3.2 nM; in test [3] it was over 1000 nM; against Human Tyk2 kinase domain it was over 1000 nM; at Human Jak2 kinase domain (setting [5]), over 1000 nM. Besides, the IC50 on Human Jak2 kinase domain (Table 2, read-out: Jak2 IC50) was over 1000 nM.
